From patent publication US12077503B2, “Substituted cyclic amides and their use as herbicides” (FMC CORPORATION, priority 2015, dated 2024)

Experiments:
Type in all cases: in vivo
[1] = test system: redroot pigweed (Amaranthus retroflexus); assay: Test G Post-Emergence Protocol; conditions: Amaranthus retroflexus, post-emergence, 312 h, read-out: Pigweed, Redroot damage rating; for pest or weed control at 15.625 g/ha: 15.625 g ai/ha, evaluated after 13 days (100=total damage to plant; 0=no damage to plant); for pest or weed control at 62.5 g/ha: 62.5 g ai/ha; for pest or weed control at 62.5 g/ha / pest or weed control at 250 g/ha: evaluated after 13 days, 100=total damage to plant, 0=no damage to plant; for pest or weed control at 250 g/ha: 250 g ai/ha
In short: (§1)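 Post-emergence herbicidal damage, scored visually 0–100 at 13 days. Application at 15.625, 62.5 or 250 g/ha onto 8-day-old plants grown under glasshouse control.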

[2] = test system: giant foxtail (Setaria faberi); assay: Test G Post-Emergence Protocol; conditions: Setaria faberi, post-emergence, 312 h, read-out: Foxtail, Giant damage rating; for pest or weed control at 15.625 g/ha: 15.625 g ai/ha, evaluated after 13 days (100=total damage to plant; 0=no damage to plant); for pest or weed control at 62.5 g/ha: 62.5 g ai/ha; for pest or weed control at 62.5 g/ha / pest or weed control at 250 g/ha: evaluated after 13 days, 100=total damage to plant, 0=no damage to plant; for pest or weed control at 250 g/ha: 250 g ai/ha
In short: as §1

[3] = test system: velvetleaf (Abutilon theophrasti); assay: Test G Post-Emergence Protocol; conditions: Abutilon theophrasti, post-emergence, 312 h, read-out: Velvetleaf damage rating; for pest or weed control at 15.625 g/ha: 15.625 g ai/ha, evaluated after 13 days (100=total damage to plant; 0=no damage to plant); for pest or weed control at 62.5 g/ha: 62.5 g ai/ha; for pest or weed control at 62.5 g/ha / pest or weed control at 250 g/ha: evaluated after 13 days, 100=total damage to plant, 0=no damage to plant; for pest or weed control at 250 g/ha: 250 g ai/ha
In short: as §1

[4] = test system: ivy-leaved morning glory (Ipomoea hederacea); assay: Test G Post-Emergence Protocol; conditions: Ipomoea, post-emergence, 312 h, read-out: Morningglory, Ivy-leaved damage rating; for pest or weed control at 15.625 g/ha: 15.625 g ai/ha, evaluated after 13 days (100=total damage to plant; 0=no damage to plant); for pest or weed control at 62.5 g/ha: 62.5 g ai/ha; for pest or weed control at 62.5 g/ha / pest or weed control at 250 g/ha: evaluated after 13 days, 100=total damage to plant, 0=no damage to plant; for pest or weed control at 250 g/ha: 250 g ai/ha
In short: as §1

[5] = test system: barnyardgrass (Echinochloa crus-galli); assay: Test G Post-Emergence Protocol; conditions: Echinochloa crus-galli, post-emergence, 312 h, read-out: Barnyardgrass damage rating; for pest or weed control at 15.625 g/ha: 15.625 g ai/ha, evaluated after 13 days (100=total damage to plant; 0=no damage to plant); for pest or weed control at 62.5 g/ha: 62.5 g ai/ha; for pest or weed control at 62.5 g/ha / pest or weed control at 250 g/ha: evaluated after 13 days, 100=total damage to plant, 0=no damage to plant; for pest or weed control at 250 g/ha: 250 g ai/ha
In short: as §1

corn (Zea mays) [6] = assay: Test G Post-Emergence Protocol; conditions: Zea mays, post-emergence, 312 h, read-out: Corn damage rating; for plant injury at 15.625 g/ha: 15.625 g ai/ha, evaluated after 13 days (100=total damage to plant; 0=no damage to plant); for plant injury at 62.5 g/ha: 62.5 g ai/ha; for plant injury at 62.5 g/ha / plant injury at 250 g/ha: evaluated after 13 days, 100=total damage to plant, 0=no damage to plant; for plant injury at 250 g/ha: 250 g ai/ha
In short: as §1

[7] = test system: redroot pigweed (Amaranthus retroflexus); assay: Test G Pre-Emergence Protocol; conditions: Amaranthus retroflexus, pre-emergence, 312 h, evaluated after 13 days; for pest or weed control at 15.625 g/ha: 15.625 g ai/ha; for pest or weed control at 15.625 g/ha / pest or weed control at 250 g/ha: read-out: Pigweed, Redroot damage rating (100=total damage to plant; 0=no damage to plant); for pest or weed control at 62.5 g/ha: 62.5 g ai/ha, 100=total damage to plant, 0=no damage to plant, read-out: Pigweed, Redroot damage rating; for pest or weed control at 250 g/ha: 250 g ai/ha
In short: (§2)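 Visual injury (0–100) at day 13 after a single pre-emergence spray. Rates: 15.625, 62.5, 250 g/ha in acetone–water 50:50 with 0.5% Tween 20. Growth conditions: 24/16° C, 14 h light, 65% humidity.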

[8] = test system: giant foxtail (Setaria faberi); assay: Test G Pre-Emergence Protocol; conditions: Setaria faberi, pre-emergence, 312 h, evaluated after 13 days; for pest or weed control at 15.625 g/ha: 15.625 g ai/ha; for pest or weed control at 15.625 g/ha / pest or weed control at 250 g/ha: read-out: Foxtail, Giant damage rating (100=total damage to plant; 0=no damage to plant); for pest or weed control at 62.5 g/ha: 62.5 g ai/ha, 100=total damage to plant, 0=no damage to plant, read-out: Foxtail, Giant damage rating; for pest or weed control at 250 g/ha: 250 g ai/ha
In short: as §2

[9] = test system: velvetleaf (Abutilon theophrasti); assay: Test G Pre-Emergence Protocol; conditions: Abutilon theophrasti, pre-emergence, 312 h, evaluated after 13 days; for pest or weed control at 15.625 g/ha: 15.625 g ai/ha; for pest or weed control at 15.625 g/ha / pest or weed control at 250 g/ha: read-out: Velvetleaf damage rating (100=total damage to plant; 0=no damage to plant); for pest or weed control at 62.5 g/ha: 62.5 g ai/ha, 100=total damage to plant, 0=no damage to plant, read-out: Velvetleaf damage rating; for pest or weed control at 250 g/ha: 250 g ai/ha
In short: as §2

[10] = test system: ivy-leaved morning glory (Ipomoea hederacea); assay: Test G Pre-Emergence Protocol; conditions: Ipomoea, pre-emergence, 312 h, evaluated after 13 days; for pest or weed control at 15.625 g/ha: 15.625 g ai/ha; for pest or weed control at 15.625 g/ha / pest or weed control at 250 g/ha: read-out: Morningglory, Ivy-leaved damage rating (100=total damage to plant; 0=no damage to plant); for pest or weed control at 62.5 g/ha: 62.5 g ai/ha, 100=total damage to plant, 0=no damage to plant, read-out: Morningglory, Ivy-leaved damage rating; for pest or weed control at 250 g/ha: 250 g ai/ha
In short: as §2

[11] = test system: barnyardgrass (Echinochloa crus-galli); assay: Test G Pre-Emergence Protocol; conditions: Echinochloa crus-galli, pre-emergence, 312 h, evaluated after 13 days; for pest or weed control at 15.625 g/ha: 15.625 g ai/ha; for pest or weed control at 15.625 g/ha / pest or weed control at 250 g/ha: read-out: Barnyardgrass damage rating (100=total damage to plant; 0=no damage to plant); for pest or weed control at 62.5 g/ha: 62.5 g ai/ha, 100=total damage to plant, 0=no damage to plant, read-out: Barnyardgrass damage rating; for pest or weed control at 250 g/ha: 250 g ai/ha
In short: as §2

corn (Zea mays) [12] = assay: Test G Pre-Emergence Protocol; conditions: Zea mays, pre-emergence, 312 h, evaluated after 13 days; for plant injury at 15.625 g/ha: 15.625 g ai/ha; for plant injury at 15.625 g/ha / plant injury at 250 g/ha: read-out: Corn damage rating (100=total damage to plant; 0=no damage to plant); for plant injury at 62.5 g/ha: 62.5 g ai/ha, 100=total damage to plant, 0=no damage to plant, read-out: Corn damage rating; for plant injury at 250 g/ha: 250 g ai/ha
In short: as §2

Row | Structure (SMILES) | pest or weed control at 15.625 g/ha [1] | pest or weed control at 62.5 g/ha [1] | pest or weed control at 250 g/ha [1] | pest or weed control at 15.625 g/ha [2] | pest or weed control at 62.5 g/ha [2] | pest or weed control at 250 g/ha [2] | pest or weed control at 15.625 g/ha [3] | pest or weed control at 62.5 g/ha [3] | pest or weed control at 250 g/ha [3] | pest or weed control at 15.625 g/ha [4] | pest or weed control at 62.5 g/ha [4] | pest or weed control at 250 g/ha [4] | pest or weed control at 15.625 g/ha [5] | pest or weed control at 62.5 g/ha [5] | pest or weed control at 250 g/ha [5] | plant injury at 15.625 g/ha (corn (Zea mays) [6]) | plant injury at 62.5 g/ha (corn (Zea mays) [6]) | plant injury at 250 g/ha (corn (Zea mays) [6]) | pest or weed control at 15.625 g/ha [7] | pest or weed control at 62.5 g/ha [7] | other results
1 | CN1C[C@@H](c2ccc(CF)cc2)[C@H](C(=O)Nc2cccc(F)c2F)C1=O (racemic) [Compound 1822] | 0% | 10% | 30% | 70% | 80% | 80% | 0% | 30% | 40% | 20% | 10% | 30% | 70% | 80% | 80% | 0% | 40% | 60% | 0% | 60% | pest or weed control at 250 g/ha [7]: 80%; pest or weed control at 15.625 g/ha [8]: 90%; pest or weed control at 62.5 g/ha [8]: 90%; pest or weed control at 250 g/ha [8]: 90%; pest or weed control at 15.625 g/ha [9]: 0%; pest or weed control at 62.5 g/ha [9]: 60%; pest or weed control at 250 g/ha [9]: 80%; pest or weed control at 15.625 g/ha [10]: 0%; pest or weed control at 62.5 g/ha [10]: 20%; pest or weed control at 250 g/ha [10]: 80%; pest or weed control at 15.625 g/ha [11]: 70%; pest or weed control at 62.5 g/ha [11]: 90%; pest or weed control at 250 g/ha [11]: 90%; plant injury at 15.625 g/ha (corn (Zea mays) [12]): 0%; plant injury at 62.5 g/ha (corn (Zea mays) [12]): 20%; plant injury at 250 g/ha (corn (Zea mays) [12]): 70%
2 | CN1C[C@H](c2cccc(C(F)(F)F)c2)[C@@H](C(=O)Nc2cc(O)ccc2F)C1=O (racemic) [Compound 1807] | 0% | 0% | 0% | 0% | 0% | 0% | 0% | 0% | 0% | 0% | 0% | 0% | 0% | 0% | 0% | 0% | 0% | 0% | 0% | 0% | pest or weed control at 250 g/ha [7]: 0%; pest or weed control at 15.625 g/ha [8]: 0%; pest or weed control at 62.5 g/ha [8]: 0%; pest or weed control at 250 g/ha [8]: 0%; pest or weed control at 15.625 g/ha [9]: 0%; pest or weed control at 62.5 g/ha [9]: 0%; pest or weed control at 250 g/ha [9]: 0%; pest or weed control at 15.625 g/ha [10]: 0%; pest or weed control at 62.5 g/ha [10]: 0%; pest or weed control at 250 g/ha [10]: 0%; pest or weed control at 15.625 g/ha [11]: 0%; pest or weed control at 62.5 g/ha [11]: 0%; pest or weed control at 250 g/ha [11]: 0%; plant injury at 15.625 g/ha (corn (Zea mays) [12]): 0%; plant injury at 62.5 g/ha (corn (Zea mays) [12]): 0%; plant injury at 250 g/ha (corn (Zea mays) [12]): 0%
